Assays:
[1] = system: wild-type recombinant human dihydrofolate reductase (rhDHFR); settings: noncovalent binding; cited from earlier work
rhDHFR [2] = assay: Inhibition of rhDHFR by MTX and DTPA-MTX (dihydrofolate reduction, A340); format: biochemical, human; settings: 1×10^-8 M and 5×10^-9 M inhibitor concentration, 22° C., pH 7.5
Description: Dihydrofolate reductase concentrations of 10^-7 -10^-9 M are easily assayed by monitoring the time dependent decrease in A340 caused by the reduction of dihydrofolate and the oxidation of the cofactor nicotinadenine dinucleotide phosphate (NADPH). The assay is performed at 22° C. (room temperature) in 50 mM Tris, pH 7.5 and 60 μM NADPH and initiated by adding dihydrofolate to 50 μM. One enzyme unit is equivalent to the amount of enzyme required to reduce 1 μmole of dihydrofolate to 1 μmole tetrahydrofolate in 1 min. at 22° C. and can be quantitated using an extinction coefficient of 12,300 M^-1 cm^-1.
The inhibition rate of DHFR by MTX and its derivatives is determined by the decrease in the conversion of dihydrofolate to tetrahydrofolate. […] Derivatives of methotrexate are evaluated by comparing inhibition rates to the inhibition rate of MTX at equivalent concentrations.
The effects of modifying methotrexate with DPTA were unknown and required a comparison of the activity of equimolar concentrations of methotrexate and DTPA-MTX. […] The inhibition of rhDHFR by MTX and DTPA-MTX were then measured under the assay conditions mentioned earlier and compared.

16.88 bound rhDHFR = assay: Inhibition of DHFR bound in an antibody-DHFR complex by MTX and DTPA-MTX, versus native rhDHFR; settings: 16.88-DHFR titrated to activity of native rhDHFR
[3] = in vivo; cited from earlier work
[4] = Biodistribution and clearance in nude mice; format: in vivo, nude mouse
Description: In order to compare the biodistribution and clearance of ^111 In-DTPA-MTX with that of ^111 In-DTPA in the nude mouse, ^111 In-DTPA-MTX is administered at a dose of 9 μg and 8 μCi and ^111 In-DTPA is administered at a dose of 9 μg and 7 μCi by intravenous injection into the lateral tail vein. Animals are sacrificed a 1, 2, 4 and 24 hours after injection in groups of three animals per time point. […] In addition, there is low uptake of the MTX conjugate in the liver which is not seen with the labeled DTPA.

[5] = Whole body clearance from athymic mice; format: in vivo, athymic nu/nu mice; settings: 50 uCi, lateral tail vein, 0.5-24 hours
Description: Clearance of the ^111 In-DTPA-MTX at a rate similar to that of ^111 In-DTPA would indicate that rapid body clearance of the portion of the conjugate not bound in tumor tissue by antibody-DHFR may be expected. Such rapid clearance would ensure that nearly all the unbound radionuclide would decay outside the body.
Three athymic nu/nu mice were injected via the lateral tail vein with 50 uCi ^111 In-DTPA-MTX in 0.5 mL 10% normal mouse serum in phosphate buffered normal saline. A second group of three animals received 50 uCi ^111 In-DTPA by the same route. All animal were examined for whole body retention of In-111 in a Capintec dose calibrator at 0.5, 1, 2, 3, 4, and 24 hours after injection.

[6] = Biodistribution and clearance in rabbits; format: in vivo, New Zealand white rabbit; settings: rabbit
Description: In order to compare the biodistribution and clearance of ^111 In-DTPA-MTX with that of ^111 In-DTPA in the New Zealand white rabbit, approximately 140-190 μg and 120 μCi of each agent is administered to three animals each by intravenous injection in the central ear […]. One animal of each group is sacrificed at 1, 4 and 24 hours after injection.

rhDHFR [7] = assay: Stability of conjugated enzyme: percent DHFR activity remaining; format: physicochemical, human
Description: A 10-fold molar excess of the photoaffinity analog was mixed with the enzyme, and the volume adjusted to a protein concentration of 1 mg/ml using 10 mM Tris-HCl buffer (pH 7.5). The mixture was kept in ice at a 10 cm distance from the light source while photoactivation was carried out for 5 minutes with occasional stirring. An aliquot was assayed for DHFR activity before and after photoactivation. The NADP^+ -linked enzyme was purified by gel-filtration using 10 mM sodium phosphate buffer, pH 7.2, containing 20 mM NaCl. Fractions were assayed for DHFR activity before they were pooled for protein estimation (using Pierce BCA reagent) and determination of incorporation of NADP^+ moieties per enzyme molecule.
[…] Percent stability was calculated by comparing with a sample kept at 4° C.

For `NC(=O)C1=CN([C@@H]2O[C@H](COP(=O)(O)OP(=O)(O)OC[C@H]3O[C@@H](n4cnc5c(N)ncnc54)[C@H](OP(=O)(O)O)[C@@H]3O)[C@@H](O)[C@H]2O)C=CC1` [NADPH, nicotinadenine dinucleotide phosphate], the “protection of rhDHFR from thermal denaturation” value [1] is given as “capable of protecting”.

For `NC(=O)c1ccc[n+]([C@@H]2O[C@H](COP(=O)([O-])OP(=O)(O)OC[C@H]3O[C@@H](n4cnc5c(N)ncnc54)[C@H](OP(=O)(O)O)[C@@H]3O)[C@@H](O)[C@H]2O)c1` [NADP], the “protection of rhDHFR from thermal denaturation” value [1] is given as “capable of protecting”.

In the case of `CN(Cc1cnc2nc(N)nc(N)c2n1)c1ccc(C(=O)N[C@@H](CCC(=O)NNC(=O)CN(CCN(CCN(CC(=O)O)CC(=O)O)CC(=O)O)CC(=O)O)C(=O)O)cc1` [DTPA-MTX], the “inhibitory effect on dihydrofolate reduction compared with MTX” value (rhDHFR [2]) is reported as “virtually identical to MTX inhibition” and the “inhibition of/binding to 16.88 bound rhDHFR compared with equivalent activity of native rhDHFR” value (16.88 bound rhDHFR) is reported as “confirmed the methotrexate data”.

For `O=C([O-])CN(CCN(CC(=O)[O-])CC(=O)[O-])CCN(CC(=O)[O-])CC(=O)[O-].[111In+3].[H+].[H+]` [^111 In-DTPA], the “clearance from the circulation” value [3] is given as “clear rapidly from the circulation”, the “retention in normal tissues” value [3] is given as “little retention in normal tissues” and the “injected dose per gram (ml) remaining in the serum” value ([4]; 1 hour post injection, i.v., 9 μg) is given as “less than 0.2%”. The “kidney activity (clearance via urine)” value ([4]; nude mouse, all time points 1-24 hours) was “activity in the kidney at all time points”, the liver uptake ([4]; nude mouse, i.v.) was “not seen” and the whole body clearance [5] was “clear from the mice at similar rates”. The kidney activity levels ([6]; i.v.) was “Low activity levels” and the “urine activity (clearance via urine)” value ([6]; i.v. 140-190 μg, 120 μCi) was “high urine activity levels”.

B1: ANPAP-NADP^+ -rhDHFR: DHFR stabilized through covalent conjugation with a photoaffinity analog of NADP^+ (ANPAP-NADP) followed by photoactivation (conjugate, UniProt P00374 1-187, looked up)
Dihydrofolate reductase: MVGSLNCIVAVSQNMGIGKNGDLPWPPLRNEFRYFQRMTTTSSVEGKQNLVIMGKKTWFSIPEKNRPLKGRINLVLSRELKEPPQGAHFLSRSLDDALKLTEQPELANKVDMVWIVGGSSVYKEAMNHPGHLKLFVTRIMQDFESDTFFPEIDLEKYKLLPEYPGVLSDVQEEKGIKYKFEVYEKND
modifications: photo-crosslinked ANPAP-NADP+ analog
In the case of B1, the “Stability: percent enzyme activity remaining after incubation” value (rhDHFR [7]; 0 minutes, 37° C.) is reported as 100%, the “Stability: percent enzyme activity remaining after incubation” value (rhDHFR [7]; 60 minutes, 37° C.) is reported as 82% and the “Stability: percent enzyme activity remaining after incubation” value (rhDHFR [7]; 120 minutes, 37° C.) is reported as 78%. For the same molecule, the “Stability: percent enzyme activity remaining after incubation” value (rhDHFR [7]; 180 minutes, 37° C.) was 78%, the “Stability: percent enzyme activity remaining after incubation” value (rhDHFR [7]; 1080 minutes, 23° C.) was 67% and the “Percent remaining activity following photoactivation” value (rhDHFR [7]; photoactivation time 5 minutes) was 100%.

B2: rhDHFR: recombinant human dihydrofolate reductase (protein, UniProt P00374 1-187, looked up)
Dihydrofolate reductase: MVGSLNCIVAVSQNMGIGKNGDLPWPPLRNEFRYFQRMTTTSSVEGKQNLVIMGKKTWFSIPEKNRPLKGRINLVLSRELKEPPQGAHFLSRSLDDALKLTEQPELANKVDMVWIVGGSSVYKEAMNHPGHLKLFVTRIMQDFESDTFFPEIDLEKYKLLPEYPGVLSDVQEEKGIKYKFEVYEKND
In the case of B2, the “Stability: percent enzyme activity remaining after incubation” value (rhDHFR [7]; 0 minutes, 37° C.) is reported as 100%, the “Stability: percent enzyme activity remaining after incubation” value (rhDHFR [7]; 30 minutes, 37° C.) is reported as 18% and the “Stability: percent enzyme activity remaining after incubation” value (rhDHFR [7]; 60 minutes, 37° C.) is reported as 10%.

— patent US5965106A, “In vivo binding pair pretargeting” (PerImmune Holdings, Inc., priority 1995, dated 1999)
